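Values below derive from 48-hour exposures of cells grown in 96-well plates, with endpoints linearly interpolated between the two concentrations bracketing the appropriate inhibition level. TGI denotes the concentration required for complete inhibition of growth.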
What was measured:
Experiment in all cases: DTP human tumour cell line panel, 48 h
[1] = test system: OVCAR-8 ovarian
[2] = test system: OVCAR-3 ovarian
[3] = test system: UACC-257 melanoma
[4] = test system: HCT-15 colon
[5] = test system: HOP-62 NSCLC
[6] = test system: SF-268 CNS
[7] = test system: NCI-H522 lung
[8] = test system: NCI-H226 lung
[9] = test system: U251 CNS
[10] = test system: SN12C renal
[11] = test system: SK-MEL-5 melanoma
[12] = test system: KM12 colon
[13] = test system: CCRF-CEM leukemia
[14] = test system: EKVX NSCLC
[15] = test system: A549 NSCLC
[16] = test system: HCC-2998 colon
[17] = test system: TK-10 renal
[18] = test system: SF-295 CNS
[19] = test system: COLO 205 colon
[20] = test system: HT29 colon
[21] = test system: HS 578T breast
[22] = test system: MALME-3M melanoma
[23] = test system: SK-OV-3 ovarian
[24] = test system: IGROV1 ovarian
[25] = test system: UO-31 renal
[26] = test system: NCI-H460 lung
[27] = test system: BT-549 breast
[28] = test system: HL-60(TB) leukemia
[29] = test system: RXF 393 renal
[30] = test system: NCI/ADR-RES ovarian
[31] = test system: MOLT-4 leukemia
[32] = test system: UACC-62 melanoma
[33] = test system: NCI-H23 lung
[34] = test system: SK-MEL-28 melanoma
[35] = test system: HCT-116 colon
[36] = test system: PC-3 prostate
[37] = test system: MDA-MB-231 breast
[38] = test system: 786-0 renal
[39] = test system: T-47D breast
[40] = test system: K-562 leukemia
[41] = test system: MDA-N
[42] = test system: SW-620 colon
[43] = test system: DU-145 prostate
[44] = test system: HOP-92 NSCLC
[45] = test system: ACHN renal
[46] = test system: LOX IMVI melanoma
[47] = test system: A498 renal
[48] = test system: M14 melanoma
[49] = test system: SNB-19 CNS
[50] = test system: MCF7 breast
[51] = test system: RPMI-8226 leukemia
[52] = test system: SK-MEL-2 melanoma
[53] = test system: SNB-75 CNS
[54] = test system: OVCAR-5 ovarian
[55] = test system: SF-539 CNS
[56] = test system: OVCAR-4 ovarian
[57] = test system: MDA-MB-435
[58] = test system: CAKI-1 renal

## CCOC(=O)C(C(=O)OCC)C1C=CCC2c3ccccc3COCC21 (stereo not drawn)
[1]
  TGI: > 100 µM
[2]
  TGI: > 100 µM
[3]
  TGI: > 100 µM
[4]
  TGI: > 100 µM
[5]
  TGI: > 100 µM
[6]
  TGI: > 100 µM
[7]
  TGI: 71.2 µM
[8]
  TGI: > 100 µM
[9]
  TGI: > 100 µM
[10]
  TGI: > 100 µM
[11]
  TGI: 36 µM
[12]
  TGI: > 100 µM
[13]
  TGI: > 100 µM
[14]
  TGI: > 100 µM
[15]
  TGI: > 100 µM
[16]
  TGI: > 100 µM
[17]
  TGI: > 100 µM
[18]
  TGI: > 100 µM
[19]
  TGI: 48.9 µM
[20]
  TGI: > 100 µM
[21]
  TGI: > 100 µM
[22]
  TGI: > 100 µM
[23]
  TGI: > 100 µM
[24]
  TGI: > 100 µM
[25]
  TGI: > 100 µM
[26]
  TGI: > 100 µM
[27]
  TGI: > 100 µM
[28]
  TGI: 56.8 µM
[29]
  TGI: > 100 µM
[30]
  TGI: 96.1 µM
[31]
  TGI: > 100 µM
[32]
  TGI: > 100 µM
[33]
  TGI: > 100 µM
[34]
  TGI: > 100 µM
[35]
  TGI: > 100 µM
[36]
  TGI: > 100 µM
[37]
  TGI: > 100 µM
[38]
  TGI: > 100 µM
[39]
  TGI: > 100 µM
[40]
  TGI: > 100 µM
[41]
  TGI: > 100 µM
[42]
  TGI: > 100 µM
[43]
  TGI: > 100 µM
[44]
  TGI: > 100 µM
[45]
  TGI: > 100 µM
[46]
  TGI: > 100 µM
[47]
  TGI: > 100 µM
[48]
  TGI: > 100 µM
[49]
  TGI: > 100 µM
[50]
  TGI: > 100 µM
[51]
  TGI: > 100 µM
[52]
  TGI: > 100 µM
[53]
  TGI: > 100 µM
[54]
  TGI: > 100 µM
[55]
  TGI: > 100 µM
[56]
  TGI: > 100 µM
[57]
  TGI: > 100 µM
[58]
  TGI: > 100 µM
